Earlier results, collected in patent US10919913B2, “Spiro[3H-indole-3,2′-pyrrolidin]-2(1H)-one compounds and derivatives as MDM2-p53 inhibitors” (Boehringer Ingelheim International GmbH, priority 2014, dated 2021).

Tested on: p53 wild-type vs. p53 mutant cell lines
Settings: in vitro, PPTP of the NCI (Carol et al. 2013)

SMILES: CCOc1cc(C(C)(C)C)ccc1C1=N[C@@](C)(c2ccc(Cl)cc2)[C@@](C)(c2ccc(Cl)cc2)N1C(=O)N1CCN(CCCS(C)(=O)=O)CC1 [RG-7112]
- cytotoxic activity, median IC50 p53 wild-type vs. p53 mutant cell lines: lower median IC50 values for p53 wild-type vs. p53 mutant cell lines
